Values joined by “and” are separate entries in the source; they are usually repeats but may differ in a detail not shown here. Identical values can stand only once.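 48-hour exposure; five concentrations; linearly interpolated endpoints. GI50 = concentration required for 50% inhibition of growth. TGI: concentration producing complete growth inhibition.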
Experiments:
Assay in all cases: NCI tumour cell line growth inhibition, 48 h
[1] = tested on: K-562 leukemia
[2] = tested on: NCI-H522 lung
[3] = tested on: RPMI-8226 leukemia
[4] = tested on: SF-539 CNS
[5] = tested on: OVCAR-5 ovarian
[6] = tested on: SW-620 colon
[7] = tested on: PC-3 prostate
[8] = tested on: SK-MEL-28 melanoma
[9] = tested on: KM12 colon
[10] = tested on: HCC-2998 colon

Structure (SMILES)	TGI [1]	TGI [2]	GI50 [3]	GI50 [4]	TGI [4]	GI50 [5]	TGI [5]	GI50 [6]	TGI [6]	TGI [7]	GI50 [8]	TGI [8]	GI50 [9]	TGI [9]	GI50 [10]	TGI [10]	GI50 [1]	GI50 [2]	TGI [3]	GI50 [7]
C/C=C(\CCC1NCCc2c1[nH]c1ccccc21)[Si](C)(C)C (stereo not given)	9.29 µM	27.9 µM and 4.96 µM	19.8 µM and 2.36 µM	6.2 µM and 1.66 µM	11.9 µM and 3.09 µM	6.34 µM and 2.42 µM	16.6 µM and 8.04 µM	5.29 µM and 1.92 µM	9.63 µM and 3.63 µM	16.1 µM	6.42 µM and 1.83 µM	11.3 µM and 3.36 µM	6.18 µM and 1.9 µM	11.3 µM and 3.64 µM	5.5 µM and 1.78 µM	9.91 µM and 3.3 µM	–	–	–	–
O=C(CC(O)c1ccncc1)c1ccccc1 (stereo not given)	> 100 µM	99.3 µM	17.9 µM	19.5 µM	48.3 µM	37.6 µM	> 100 µM	32.2 µM	> 100 µM	> 100 µM	21.9 µM	70.4 µM	33.7 µM	> 100 µM	35 µM	> 100 µM	23.9 µM	29.4 µM	62.6 µM	23.3 µM
COc1ccc(N(C)c2nc(Cl)nc3ccn(C)c23)cc1	> 100 µM	< 0.01 µM	< 0.01 µM	< 0.01 µM	> 100 µM	7.54 µM	> 100 µM	< 0.01 µM	> 100 µM	> 100 µM	5 µM	> 100 µM	< 0.01 µM	> 100 µM	< 0.01 µM	> 100 µM	< 0.01 µM	< 0.01 µM	> 100 µM	< 0.01 µM
CS(=O)(=O)Nc1cccc(-c2ccc3c(NC(=O)C4CC4)n[nH]c3c2)c1	> 25 µM	–	10.8 µM	1.5 µM	> 25 µM	12.7 µM	> 25 µM	2.14 µM	> 25 µM	> 25 µM	3.4 µM	> 25 µM	1.39 µM	> 25 µM	4.08 µM	> 25 µM	0.776 µM	0.308 µM	> 25 µM	3.24 µM
Cc1[nH]n(-c2ccc(S(=O)(=O)O)cc2)c(=O)c1N=Nc1ccccc1	> 100 µM	> 100 µM	–	–	> 100 µM	–	> 100 µM	–	> 100 µM	> 100 µM	–	> 100 µM	–	> 100 µM	–	> 100 µM	–	–	> 100 µM	–
c1ccc2c(Nc3ccc(Oc4ccc(Nc5c6ccccc6nc6ccccc56)cc4)cc3)c3ccccc3nc2c1	1.08 µM	1.97 µM and 0.44 µM	0.187 µM	2.1 µM and 1.65 µM	3.91 µM and 3.32 µM	–	1.06 µM	–	0.552 µM	0.366 µM	1.44 µM	–	0.21 µM and 0.187 µM	0.441 µM and 0.376 µM	–	0.0155 µM	0.32 µM	0.205 µM	0.434 µM	–
O=c1oc2ccc(F)cc2c(=O)n1-c1ccc(Cl)cc1F	> 100 µM	4.5 µM	0.356 µM	0.564 µM	6.79 µM	3.73 µM	> 100 µM	1.24 µM	21.2 µM	6.32 µM	0.456 µM	2.92 µM	2.11 µM	5.84 µM	2.89 µM	10.8 µM	0.509 µM	0.363 µM	1.9 µM	1.5 µM
